Test results as given in patent US8563472B2 (priority 2010, dated 2013).

How the values were obtained:
[1] = test system: Leptosphaeria nodorum (LEPTNO); assay: In vitro fungitoxicity assay against Leptosphaeria nodorum in copper-minus / copper-plus liquid medium; assay type: cell-based; details: test compound 0.05 μg/mL, 25° C., 72 h; for inhibition of growth at 0.05 µg/mL: Parastagonospora nodorum, copper-minus medium, growth by light scattering, read-out: LEPTNO % Inhn. Minus Copper Observed; for LEPTNO % Inhn. Plus Copper Observed: copper-plus medium (CuCl2.2H2O)
Protocol: In vitro fungitoxicity assays against Leptosphaeria nodorum (LEPTNO) were conducted using the liquid growth medium described by Coursen and Sisler (American Journal of Botany 1960, 47, 541-549) except that copper micronutrient, normally included as CuSO4, was omitted. The medium, termed “copper-minus”, was prepared by dissolving 10 g glucose, 1.5 g K2HPO4, 2 g KH2PO4 and 1 g (NH4)2SO4 in 1 liter of deionized water and treating the solution with 0.5 g Chelex 100 resin (Bio-Rad Analytical grade, 50-100 mesh, sodium form, cat#142-2822) by stirring at room temperature for 1 h. MgSO4.7H2O (0.5 g) was added, and stirring was continued for a further hour. Trace elements (minus CuSO4), and vitamins described by Coursen and Sisler were added from concentrated stock solutions and the entire medium was sterilized by filtration. Medium containing copper was prepared by adding CuCl2.2H2O to the copper-minus medium at 20 μM. […] Copper-minus medium (100 μL) was added to one of the wells and copper-plus medium to the second well. Control wells, included for each medium, received 1 μL DMSO and 100 μL of medium.
LEPTNO was grown on potato dextrose agar in 9 cm diameter petri dishes for 7 days (d). Sterile deionized water (20 mL) was added to a culture plate and spores suspended by scraping the surface gently with a sterile plastic loop. The resulting suspension was filtered through a double layer of sterile cheesecloth. […] The spores were resuspended in copper-minus medium, and the suspension adjusted to 2×10^5 spores per mL. Microtiter plates were inoculated with 100 μL of this spore suspension and the plates incubated at 25° C. for 72 h before assessing fungal growth by measuring light scattering in a NepheloStar plate reader. Growth inhibition was determined by comparing growth in the presence of test compound with growth in control wells lacking test compound.

Phytophthora infestans = assay type: in vivo; details: hydrazone 50 ppm with 50 μM CuCl2.2H2O, applied 24 h before inoculation, tomato plants, assessed 7 d after inoculation

SMILES	inhibition of growth at 0.05 µg/mL [1] [%]	LEPTNO % Inhn. Plus Copper Observed [1] [%]	TLB % control (Phytophthora infestans) [%]	melting point [°C]
C/C(=N\NC(=O)c1cnn(-c2ccc(Cl)cc2)c1C(F)(F)F)c1cc(Cl)cc(Cl)c1O [Compound 41]	0	71.3	36	209 to 211
C/C(=N\NC(=O)c1cn(-c2ccccc2)nc1O)c1cc(Cl)cc(Cl)c1O [Compound 42]	3.5	91.2	2	269 to 271
C/C(=N\NC(=O)c1sc(C)nc1C)c1cc(Cl)cc(Cl)c1O [Compound 43]	0	94.3	66	208 to 209
C/C(=N\NC(=O)c1ccc(Cl)s1)c1cc(Cl)cc(Cl)c1O [Compound 44]	2	96.9	68	221 to 224
C/C(=N\NC(=O)c1csc(C)c1)c1cc(Cl)cc(Cl)c1O [Compound 45]	3.7	98.3	83	218 to 220
C/C(=N\NC(=O)c1ccoc1C)c1cc(Cl)cc(Cl)c1O [Compound 46]	0	97.2	69	212 to 215
C/C(=N\NC(=O)c1ccsc1)c1cc(Cl)cc(Cl)c1O [Compound 47]	0	98.1	81	230 to 232
C/C(=N\NC(=O)c1cnn(-c2ccc(Cl)cc2)c1C(F)(F)F)c1cc(Br)cc(Br)c1O [Compound 48]	4.3	56	19	121 to 125
C/C(=N\NC(=O)c1sc(C)nc1C)c1cc(Br)cc(Br)c1O [Compound 49]	2.6	89.1	61	221 to 223
C/C(=N\NC(=O)c1ccc(Cl)s1)c1cc(Br)cc(Br)c1O [Compound 50]	0	97.5	85	253 to 255
C/C(=N\NC(=O)c1csc(C)c1)c1cc(Br)cc(Br)c1O [Compound 51]	2.2	98	88	237 to 239
C/C(=N\NC(=O)c1ccoc1C)c1cc(Br)cc(Br)c1O [Compound 52]	0	97.7	66	201 to 204
C/C(=N\NC(=O)c1ccsc1)c1cc(Br)cc(Br)c1O [Compound 53]	7.6	97.6	73	251 to 253
CN1CCCCC1C(=O)N/N=C/c1cc(Cl)cc(Cl)c1O (centres unmarked) [Compound 54, 1-methyl-piperidine-2-carboxylic acid [1-(3,5-dichloro-2-hydroxy-phenyl)-methylidene]-hydrazide]	0	91	22	107 to 110
